Where a name gives a salt, the structure may show the parent alone.
System: Human WB (90%) CD69
Experiment: Human WB (90%) CD69
Type: cell-based
Conditions: read-out: Human WB (90%) CD69 IC50 (nM); human whole blood (90%), CD69 readout

Row | SMILES | IC50
1 | CC(C)N1CCN(c2ccc(-c3cc(NCCN4CCOCC4)c4nc(C5CCC5)n(C)c4c3)cc2)CC1 [Example 32, 2-cyclobutyl-6-(4-(4-isopropylpiperazin-1-yl)phenyl)-1-methyl-N-(2-morpholinoethyl)-1H-benzo[d]imidazol-4-amine, 2 TFA] | 79 nM
2 | Cc1cc(C)nc(Nc2cc(-c3ccc(N4CCN(C(C)C)CC4)cc3)cc3c2nc(C2CC2)n3C)c1 [Example 33, 2-cyclopropyl-N-(4,6-dimethylpyridin-2-yl)-6-(4-(4-isopropylpiperazin-1-yl)phenyl)-1-methyl-1H-benzo[d]imidazol-4-amine, TFA] | 245 nM
3 | Cc1cc(C)nc(Nc2cc(-c3ccc(N4CCN(C(C)C)CC4)cc3)cc3c2nc(C2CCC2)n3C)c1 [Example 34, 2-cyclobutyl-N-(4,6-dimethylpyridin-2-yl)-6-(4-(4-isopropylpiperazin-1-yl)phenyl)-1-methyl-1H-benzo[d]imidazol-4-amine, TFA] | 587 nM
4 | CC(C)N1CCN(c2ccc(-c3cc(NCCN4CCC(F)(F)CC4)c4nc(-c5ccc(S(C)(=O)=O)cc5)n(C)c4c3)cc2)CC1 [Example 35, N-(2-(4,4-difluoropiperidin-1-yl)ethyl)-6-(4-(4-isopropylpiperazin-1-yl)phenyl)-1-methyl-2-(4-(methylsulfonyl)phenyl)-1H-benzo[d]imidazol-4-amine] | 571 nM
5 | CC(C)N1CCN(c2ccc(-c3cc(NCc4ccc(CN5CCOCC5)cc4)c4nc(-c5ccc(S(C)(=O)=O)cc5)n(C)c4c3)cc2)CC1 [Example 36, 6-(4-(4-isopropylpiperazin-1-yl)phenyl)-1-methyl-2-(4-(methylsulfonyl)phenyl)-N-(4-(morpholinomethyl)benzyl)-1H-benzo[d]imidazol-4-amine] | 221 nM
6 | CC(C)N1CCN(c2ccc(-c3cc(Nc4ccc(N5CCOCC5)nn4)c4nc(-c5ccc(S(C)(=O)=O)cc5)n(C)c4c3)cc2)CC1 [Example 37, 6-(4-(4-isopropylpiperazin-1-yl)phenyl)-1-methyl-2-(4-(methylsulfonyl)phenyl)-N-(6-morpholinopyridazin-3-yl)-1H-benzo[d]imidazol-4-amine, TFA] | 167 nM
7 | Cc1cc(C)nc(Nc2cc(-c3ccc(N4CCN(C5CCOCC5)CC4)cc3)cc3c2nc(-c2ccc(S(C)(=O)=O)cc2)n3C)c1 [Example 38, N-(4,6-dimethylpyridin-2-yl)-1-methyl-2-(4-(methylsulfonyl)phenyl)-6-(4-(4-(tetrahydro-2H-pyran-4-yl)piperazin-1-yl)phenyl)-1H-benzo[d]imidazol-4-amine] | 899 nM
8 | CC(C)N1CCN(c2ccc(-c3cc(NCCN4CCOCC4)c4ncn(C)c4c3)cc2)CC1 [Example 39, 6-(4-(4-isopropylpiperazin-1-yl)phenyl)-1-methyl-N-(2-morpholinoethyl)-1H-benzo[d]imidazol-4-amine, 2 TFA] | 283 nM
9 | Cc1cc(C)nc(Nc2cc(-c3ccc(N4CCN(C(C)C)CC4)cc3)cc3c2ncn3C)c1 [Example 40, N-(4,6-dimethylpyridin-2-yl)-6-(4-(4-isopropylpiperazin-1-yl)phenyl)-1-methyl-1H-benzo[d]imidazol-4-amine] | 565 nM
10 | Cc1cc(C)nc(Nc2cc(-c3ccc(N4CCN(C(C)C)CC4)cc3)cc3c2nc(C2CCS(=O)(=O)CC2)n3C)c1 [Example 41, 4-(4-((4,6-dimethylpyridin-2-yl)amino)-6-(4-(4-isopropylpiperazin-1-yl)phenyl)-1-methyl-1H-benzo[d]imidazol-2-yl)tetrahydro-2H-thiopyran 1,1-dioxide. TFA] | 128 nM
11 | CC(C)N1CCN(c2ccc(-c3cc(NCCN4CCOCC4)c4nc(C5CCS(=O)(=O)CC5)n(C)c4c3)cc2)CC1 [Example 42, 4-(6-(4-(4-isopropylpiperazin-1-yl)phenyl)-1-methyl-4-((2-morpholinoethyl)amino)-1H-benzo[d]imidazol-2-yl)tetrahydro-2H-thiopyran 1,1-dioxide] | 925 nM
12 | CC(C)N1CCN(c2ccc(-c3cc(NCc4ccc(CN5CCOCC5)cc4)c4nc(C5CCS(=O)(=O)CC5)n(C)c4c3)cc2)CC1 [Example 43, 4-(6-(4-(4-isopropylpiperazin-1-yl)phenyl)-1-methyl-4-((4-(morpholinomethyl)benzyl)amino)-1H-benzo[d]imidazol-2-yl)tetrahydro-2H-thiopyran 1,1-dioxide, 2 TFA] | 396 nM
13 | Cc1cc(C)nc(Nc2cc(-c3ccc(N4CCN(C(C)C)CC4)cc3)cc3c2nc(C2COC2)n3C)c1 [Example 44, N-(4,6-dimethylpyridin-2-yl)-6-(4-(4-isopropylpiperazin-1-yl)phenyl)-1-methyl-2-(oxetan-3-yl)-1H-benzo[d]imidazol-4-amine] | 282 nM
14 | CC(C)N1CCN(c2ccc(-c3cc(NCCN4CCOCC4)c4nc(C5COC5)n(C)c4c3)cc2)CC1 [Example 45, 6-(4-(4-isopropylpiperazin-1-yl)phenyl)-1-methyl-N-(2-morpholinoethyl)-2-(oxetan-3-yl)-1H-benzo[d]imidazol-4-amine] | 473 nM
15 | CC(C)N1CCN(c2ccc(-c3cc(NCc4ccc(CN5CCOCC5)cc4)c4nc(C5COC5)n(C)c4c3)cc2)CC1 [Example 46, 6-(4-(4-isopropylpiperazin-1-yl)phenyl)-1-methyl-N-(4-(morpholinomethyl)benzyl)-2-(oxetan-3-yl)-1H-benzo[d]imidazol-4-amine] | 534 nM
16 | CC(C)N1CCN(c2ccc(-c3cc(NCCN4CCOCC4)c4nc(C5CCOCC5)n(C)c4c3)cc2)CC1 [Example 47, 6-(4-(4-isopropylpiperazin-1-yl)phenyl)-1-methyl-N-(2-morpholinoethyl)-2-(tetrahydro-2H-pyran-4-yl)-1H-benzo[d]imidazol-4-amine, 2 TFA] | 181 nM
17 | Cc1cc(C)nc(Nc2cc(-c3ccc(N4CCN(C(C)C)CC4)cc3)cc3c2nc(C2CCOCC2)n3C)c1 [Example 48, N-(4,6-dimethylpyridin-2-yl)-6-(4-(4-isopropylpiperazin-1-yl)phenyl)-1-methyl-2-(tetrahydro-2H-pyran-4-yl)-1H-benzo[d]imidazol-4-amine, TFA] | 109 nM
18 | Cc1cc(C)nc(Nc2cc(-c3ccc(N4CCN(C(C)C)CC4)cc3)cc3c2nc(-c2cnoc2)n3C)c1 [Example 49, N-(4,6-dimethylpyridin-2-yl)-6-(4-(4-isopropylpiperazin-1-yl)phenyl)-2-(isoxazol-4-yl)-1-methyl-1H-benzo[d]imidazol-4-amine, TFA] | 1090 nM
19 | CC(C)N1CCN(c2ccc(-c3cc(NC4CCN(S(C)(=O)=O)CC4)c4nc(C5CCN(S(C)(=O)=O)CC5)n(C)c4c3)cc2)CC1 [Example 50, 6-(4-(4-isopropylpiperazin-1-yl)phenyl)-1-methyl-N,2-bis(1-(methylsulfonyl)piperidin-4-yl)-1H-benzo[d]imidazol-4-amine] | 1530 nM
20 | Cc1cc(C)nc(Nc2cc(-c3ccc(N4CCN(C(C)C)CC4)cc3)cc3c2nc(-c2cc[nH]c2)n3C)c1 [Example 51, N-(4,6-dimethylpyridin-2-yl)-6-(4-(4-isopropylpiperazin-1-yl)phenyl)-1-methyl-2-(1H-pyrrol-3-yl)-1H-benzo[d]imidazol-4-amine] | 61 nM
21 | Cc1cc(C)nc(Nc2cc(-c3ccc(N4CCN(C(C)C)CC4)cc3)cc3c2nc(-c2ccco2)n3C)c1 [Example 52, N-(4,6-dimethylpyridin-2-yl)-2-(furan-2-yl)-6-(4-(4-isopropylpiperazin-1-yl)phenyl)-1-methyl-1H-benzo[d]imidazol-4-amine, TFA] | 62 nM
22 | Cc1cc(C)nc(Nc2cc(-c3ccc(N4CCN(C(C)C)CC4)cc3)cc3c2nc(-c2cc[nH]n2)n3C)c1 [Example 53, N-(4,6-dimethylpyridin-2-yl)-6-(4-(4-isopropylpiperazin-1-yl)phenyl)-1-methyl-2-(1H-pyrazol-3-yl)-1H-benzo[d]imidazol-4-amine, TFA] | 75 nM
23 | CC(C)N1CCN(c2ccc(-c3cc(NC4CCN(S(C)(=O)=O)CC4)c4nc(N(C)C)n(C)c4c3)cc2)CC1 [Example 54, 6-(4-(4-isopropylpiperazin-1-yl)phenyl)-N2,N2,1-trimethyl-N4-(1-(methylsulfonyl)piperidin-4-yl)-1H-benzo[d]imidazole-2,4-diamine] | 673 nM
24 | CC(C)N1CCN(c2ccc(-c3cc(NCc4cccc(S(C)(=O)=O)c4)c4nc(-c5ccc(S(C)(=O)=O)cc5)n(C)c4c3)cc2)CC1 [Example 55, 6-(4-(4-isopropylpiperazin-1-yl)phenyl)-1-methyl-N-(3-(methylsulfonyl)benzyl)-2-(4-(methylsulfonyl)phenyl)-1H-benzo[d]imidazol-4-amine] | 1130 nM
25 | CC(C)N1CCN(c2ccc(-c3cc(NCc4ccc(S(C)(=O)=O)cc4)c4nc(-c5ccc(S(C)(=O)=O)cc5)n(C)c4c3)cc2)CC1 [Example 56, 6-(4-(4-isopropylpiperazin-1-yl)phenyl)-1-methyl-N-(4-(methylsulfonyl)benzyl)-2-(4-(methylsulfonyl)phenyl)-1H-benzo[d]imidazol-4-amine, TFA] | 1640 nM
26 | Cc1nc2c(NC3CCN(C4COC4)CC3)cc(-c3ccc(N4CCN(C(C)C)CC4)cc3)cc2n1C [Example 57, 6-(4-(4-isopropylpiperazin-1-yl)phenyl)-1,2-dimethyl-N-(1-(oxetan-3-yl)piperidin-4-yl)-1H-benzo[d]imidazol-4-amine] | 188 nM
27 | Cc1nc2c(N3CCN(C4COC4)CC3)cc(-c3ccc(N4CCN(C(C)C)CC4)cc3)cc2n1C [Example 58, 6-(4-(4-isopropylpiperazin-1-yl)phenyl)-1,2-dimethyl-4-(4-(oxetan-3-yl)piperazin-1-yl)-1H-benzo[d]imidazole] | 860 nM
28 | COc1ccc(-c2nc3c(N4CCN(C5COC5)CC4)cc(-c4ccc(N5CCN(C(C)C)CC5)cc4)cc3n2C)cc1OC [Example 59, 2-(3,4-dimethoxyphenyl)-6-(4-(4-isopropylpiperazin-1-yl)phenyl)-1-methyl-4-(4-(oxetan-3-yl)piperazin-1-yl)-1H-benzo[d]imidazole] | 651 nM
29 | Cc1nc2c(N3CCC(CNC4COC4)CC3)cc(-c3ccc(N4CCN(C(C)C)CC4)cc3)cc2n1C [Example 60, N-((1-(6-(4-(4-isopropylpiperazin-1-yl)phenyl)-1,2-dimethyl-1H-benzo[d]imidazol-4-yl)piperidin-4-yl)methyl)oxetan-3-amine] | 535 nM

Reference: US20260224584A1 (priority 2023, published 2026)
